Results from patent US9187497B2, “Substituted pyrido[3,2-e]pyrrolo[1,2-a]pyrazines as inhibitors of poly(ADP-ribose)polymerase (PARP)” (Takeda Phamaceutical Company Limited, priority 2009, dated 2015).

Assays:
Jurkat cell line = assay: PARP cellular chemopotentiation assay (MTS cell viability with and without TMZ); format: cell-based; details: ratio of EC50 for inhibition of cell viability without and with 100 μM TMZ; Jurkat cells, 96 hours of treatment
Method in brief: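 Jurkat cells, 10,000/well, pre-cultured 24 h, then treated 96 h with serial compound dilutions (0.5% DMSO) with or without 100 μM TMZ. Viability by MTS conversion (OD490), normalized to DMSO controls; EC50 from curve fits, PF50 = EC50 without TMZ / EC50 with TMZ.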

PARP = target: T1, PARP (Homo sapiens, UniProt P09874); assay: PARP ELISA colorimetric assay of inhibition of PARP catalytic activity (IC50); format: biochemical; details: pIC50=-log(IC50), IC50 in molar concentration; ELISA-based PARP kit, 10 minutes of catalysis
T1 construct: purchased Trevigen 4684-096-01 (enzyme); kit 4684-096-K HT
Method in brief: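 Human PARP was added as a 0.1 nM solution to histone-coated wells with compound for a 10-min ambient preincubation. The reaction was started with 100 μM NAD+ solution plus activated DNA and run 10 min. PAR formation was detected by anti-PAR ELISA, colorimetric. IC50 came from a 12-point, 3-fold gradient fitted by nonlinear least squares to a Hill equation.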

[1] = target: T2, catalytic domain of Human PARP (Homo sapiens, UniProt P09874); assay: Biacore surface plasmon resonance affinity assay (dissociation constant KD); format: binding; details: pKD=-log(KD), KD in molar concentration; Biacore T100, 25° C.
T2 construct: The catalytic domain of Human PARP was cloned and prepared; made in house
Protocol: Dissociation Constant (KD) from Surface Plasmon Resonance
The catalytic domain of Human PARP was cloned and prepared as described in Kinoshita, T.; Nakanishi, I.; Warizaya, M.; Iwashita, A.; Kido, Y.; Hattori, K. and Fujii, T. 2006 FEBS Letters 556, 43-46. Purified enzyme was stored at −80° C. in 25 mM Tris(hydroxymethyl)aminomethane (Tris) pH 7.4, 150 mM NaCl, 2 mM dithiothreitol (DTT) at a concentration of 6 mg/ml.
Biacore affinity assays for test compounds were conducted on a Biacore T100 (GE Healthcare) as follows. A Series S Sensor Chip CM5 (part number BR-1006-68, GE Healthcare) was activated for amide coupling with an Amine Coupling Kit (part number BR-1000-50, GE Healthcare) as described by the manufacturer. The mobile phase buffer consisted of Biacore buffer HBS-P (part number BR-1003-68, GE Healthcare) supplemented with 1% v/v dimethylsulfoxide (DMSO), 0.5 mM Tris(2-carboxyethyl)phosphine hydrochloride (TCEP), and 5 mM MgCl2. Enzyme samples (2 μl/6 mg/ml) stored at −80° C. were diluted to 0.080 mg/ml with 10 mM 4-morpholineethanesulfonic acid (MES) pH 6.5 and then mounted on the activated Biacore CM5 chip at a flow rate of 10 μl/min for 240 seconds. When successfully mounted, a signal of approximately 8,000 reflective units was observed. Test compounds were diluted 9 times 2-fold serially in mobile phase buffer (listed above) at 1% v/v DMSO final to generate a concentration gradient bracketing their anticipated KDs. Biacore mounted PARP was given a 1 minute exposure (association phase) to various concentrations of test compounds to observe a steady state equilibrium or an on rate. The exposure was followed with a dissociation phase of 5 minutes. The association and dissociation phases were at a flow rate of 50 μl/min and a temperature of 25° C.
Parameters Rmax (response at saturation) and KD (binding constant) were calculated through a nonlinear least squares fitting of the equation to the data by use of the Biacore T100 analysis software.
Parameter optimization was through a nonlinear least squares analysis of the association phase Response=Rmax*(1−exp(−(kon[cmpd]+koff)*t)) and dissociation phase Response=[…] by use of the Biacore T100 analysis software. The binding constant KD was calculated from the definition KD=koff/kon

T1 sequence (P09874 whole entry): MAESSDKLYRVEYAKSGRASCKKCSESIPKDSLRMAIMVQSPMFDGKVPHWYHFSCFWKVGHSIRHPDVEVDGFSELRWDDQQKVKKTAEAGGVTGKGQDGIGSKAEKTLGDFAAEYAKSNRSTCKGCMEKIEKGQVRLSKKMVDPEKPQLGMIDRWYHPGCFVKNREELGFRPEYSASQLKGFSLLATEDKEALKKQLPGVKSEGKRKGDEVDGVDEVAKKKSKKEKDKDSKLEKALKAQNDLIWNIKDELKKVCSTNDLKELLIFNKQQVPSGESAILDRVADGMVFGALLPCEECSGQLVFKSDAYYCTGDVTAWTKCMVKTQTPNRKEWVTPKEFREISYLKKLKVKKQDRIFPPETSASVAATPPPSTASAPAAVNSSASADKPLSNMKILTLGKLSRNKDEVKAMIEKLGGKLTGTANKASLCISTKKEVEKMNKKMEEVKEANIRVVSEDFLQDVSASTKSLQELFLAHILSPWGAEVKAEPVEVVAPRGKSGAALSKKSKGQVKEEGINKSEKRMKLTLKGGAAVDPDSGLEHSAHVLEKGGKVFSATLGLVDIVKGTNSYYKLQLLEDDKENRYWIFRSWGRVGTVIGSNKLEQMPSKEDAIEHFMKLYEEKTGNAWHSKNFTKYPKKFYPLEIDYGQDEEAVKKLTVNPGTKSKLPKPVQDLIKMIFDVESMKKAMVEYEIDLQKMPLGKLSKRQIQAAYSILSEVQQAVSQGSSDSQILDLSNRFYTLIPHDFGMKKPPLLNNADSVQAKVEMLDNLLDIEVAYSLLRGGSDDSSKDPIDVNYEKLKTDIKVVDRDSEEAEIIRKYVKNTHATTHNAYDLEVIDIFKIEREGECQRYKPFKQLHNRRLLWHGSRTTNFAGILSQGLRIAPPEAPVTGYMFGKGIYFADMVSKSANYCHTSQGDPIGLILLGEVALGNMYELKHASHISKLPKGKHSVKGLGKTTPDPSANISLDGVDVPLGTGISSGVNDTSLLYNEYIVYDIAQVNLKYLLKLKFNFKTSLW
T2 sequence (P09874 788-1014 limits assumed): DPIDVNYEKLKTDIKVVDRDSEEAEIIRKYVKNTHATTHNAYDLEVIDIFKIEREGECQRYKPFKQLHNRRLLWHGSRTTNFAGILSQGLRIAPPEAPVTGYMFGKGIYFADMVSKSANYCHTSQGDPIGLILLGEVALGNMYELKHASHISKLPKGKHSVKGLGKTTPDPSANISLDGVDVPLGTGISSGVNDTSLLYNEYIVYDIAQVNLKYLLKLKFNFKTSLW

melting point [°C] | IC50 (PARP) [nM] | Kd [1] [nM] | SMILES | PF50 (Jurkat cell line)
265 to 268 |  |  | O=C1Nc2cc(CN3CCN(c4ccc(Cl)cc4)CC3)cnc2N2CCC[C@@H]12 [Compound 1, (S)-3-((4-(4-chlorophenyl)piperazin-1-yl)methyl)-6a,7,8,9-tetrahydropyrido[3,2-e]pyrrolo[1,2-a]pyrazin-6(5H)-one] | >500
252 | 15.8 to 39.8 |  | N#Cc1ccc(N2CCN(Cc3cnc4c(c3)NC(=O)[C@@H]3CCCN43)CC2)cc1 [Compound 4, (S)-4-(4-((6-oxo-5,6,6a,7,8,9-hexahydropyrido[3,2-e]pyrrolo[1,2-a]pyrazin-3-yl)methyl)piperazin-1-yl)benzonitrile] | >2000
265 to 268 | 15.8 to 39.8 |  | O=C(NC1CC1)c1ccc(N2CCN(Cc3cnc4c(c3)NC(=O)[C@@H]3CCCN43)CC2)cc1 [Compound 13, (S)—N-cyclopropyl-4-(4-((6-oxo-5,6,6a,7,8,9-hexahydropyrido[3,2-e]pyrrolo[1,2-a]pyrazin-3-yl)methyl)piperazin-1-yl)benzamide] | >5000
226 |  |  | N#Cc1ccc(N2CCN(Cc3cnc4c(c3)NC(=O)[C@@H]3CCCN43)CC2)c(F)c1 [Compound 14, (S)-3-fluoro-4-(4-((6-oxo-5,6,6a,7,8,9-hexahydropyrido[3,2-e]pyrrolo[1,2-a]pyrazin-3-yl)methyl)piperazin-1-yl)benzonitrile] | >500
213 to 215 |  |  | N#Cc1ccc(N2CCN(Cc3cnc4c(c3)NC(=O)[C@@H]3CCCN43)CC2)c(Cl)c1 [Compound 16, (S)-3-chloro-4-(4-((6-oxo-5,6,6a,7,8,9-hexahydropyrido[3,2-e]pyrrolo[1,2-a]pyrazin-3-yl)methyl)piperazin-1-yl)benzonitrile] | >500
224 to 227 |  |  | N#Cc1cc(F)c(N2CCN(Cc3cnc4c(c3)NC(=O)[C@@H]3CCCN43)CC2)cc1F [Compound 17, (S)-2,5-difluoro-4-(4-((6-oxo-5,6,6a,7,8,9-hexahydropyrido[3,2-e]pyrrolo[1,2-a]pyrazin-3-yl)methyl)piperazin-1-yl)benzonitrile] | >2000
251 to 255 |  |  | N#Cc1ccc(N2CCN(Cc3cnc4c(c3)NC(=O)[C@@H]3CCCN43)CC2)cc1F [Compound 21, (S)-2-fluoro-4-(4-((6-oxo-5,6,6a,7,8,9-hexahydropyrido[3,2-e]pyrrolo[1,2-a]pyrazin-3-yl)methyl)piperazin-1-yl)benzonitrile] | >2000
 | 15.8 to 39.8 | < 31.6 | O=C1Nc2cc(CN3CCC(c4ccc(Cl)cc4)CC3)cnc2N2CCCCC12 (stereo not drawn) [Compound 67, 3-((4-(4-chlorophenyl)piperidin-1-yl)methyl)-7,8,9,10-tetrahydro-5H-dipyrido[1,2-a:3′,2′-e]pyrazin-6(6aH)-one] | ≧0
212.2 | ≤ 12.6 |  | N#Cc1ccc(N2CCN(Cc3cnc4c(c3)NC(=O)[C@@H]3CCCCN43)CC2)cc1 [Compound 71, (S)-4-(4-((6-oxo-6,6a,7,8,9,10-hexahydro-5H-dipyrido[1,2-a:3′,2′-e]pyrazin-3-yl)methyl)piperazin-1-yl)benzonitrile] | >500
232.6 | ≤ 12.6 |  | CCNC(=O)c1ccc(N2CCN(Cc3cnc4c(c3)NC(=O)[C@@H]3CCCCN43)CC2)cc1 [Compound 73, (S)—N-ethyl-4-(4-((6-oxo-6,6a,7,8,9,10-hexahydro-5H-dipyrido[1,2-a:3′,2′-e]pyrazin-3-yl)methyl)piperazin-1-yl)benzamide] | >2000
 | ≥ 50.1 | 31.6 to 794 | CN1CC(=O)Nc2cc(CN3CCN(c4ccc(Cl)cc4)CC3)cnc21 [Compound 81, 7-((4-(4-chlorophenyl)piperazin-1-yl)methyl)-4-methyl-3,4-dihydropyrido[2,3-b]pyrazin-2(1H)-one] | ≧0
 | ≥ 50.1 | 31.6 to 794 | CN1CC(=O)Nc2cc(CN3CCC(c4ccc(Cl)cc4)CC3)cnc21 [Compound 82, 7-((4-(4-chlorophenyl)piperidin-1-yl)methyl)-4-methyl-3,4-dihydropyrido[2,3-b]pyrazin-2(1H)-one] | ≧0
 | ≤ 12.6 | 31.6 to 794 | O=C1CN(Cc2ccccc2)c2ncc(CN3CCN(c4ccc(Cl)cc4)CC3)cc2N1 [Compound 84, 4-benzyl-7-((4-(4-chlorophenyl)piperazin-1-yl)methyl)-3,4-dihydropyrido[2,3-b]pyrazin-2(1H)-one] | ≧0
 | 15.8 to 39.8 | 31.6 to 794 | O=C1CN(Cc2ccccc2)c2ncc(CN3CCC(c4ccc(Cl)cc4)CC3)cc2N1 [Compound 85, 4-benzyl-7-((4-(4-chlorophenyl)piperidin-1-yl)methyl)-3,4-dihydropyrido[2,3-b]pyrazin-2(1H)-one] | ≧0
 | ≤ 12.6 | < 31.6 | O=C1Nc2cc(CN3CCC(c4ccc(Cl)cc4)CC3)cnc2N2CCSCC12 (stereo not drawn) [Compound 88, 3-((4-(4-chlorophenyl)piperidin-1-yl)methyl)-6a,7,9,10-tetrahydropyrido[3,2-e][1,4]thiazino[4,3-a]pyrazin-6(5H)-one] | ≧0
288.9 |  |  | CCNC(=O)c1ccc(N2CCN(Cc3cnc4c(c3)NC(=O)[C@@H]3CSCCN43)CC2)cc1 [Compound 92, (R)—N-ethyl-4-(4-((6-oxo-5,6,6a,7,9,10-hexahydropyrido[3,2-e][1,4]thiazino[4,3-a]pyrazin-3-yl)methyl)piperazin-1-yl)benzamide] | >5000
242 | ≥ 50.1 |  | CCOC(=O)c1ccc(N2CCN(Cc3cnc4c(c3)NC(=O)[C@@H]3CCCN43)CC2)cc1 [Compound 101, (S)-ethyl 4-(4-((6-oxo-5,6,6a,7,8,9-hexahydropyrido[3,2-e]pyrrolo[1,2-a]pyrazin-3-yl)methyl)piperazin-1-yl)benzoate] | >10
121.3 | ≥ 50.1 |  | O=C1Nc2cc(CN3CCN(c4ccc(C(=O)N5CCCC5)cc4)CC3)cnc2N2CCC[C@@H]12 [Compound 138, (S)-3-((4-(4-(pyrrolidine-1-carbonyl)phenyl)piperazin-1-yl)methyl)-6a,7,8,9-tetrahydropyrido[3,2-e]pyrrolo[1,2-a]pyrazin-6(5H)-one] | ≧0

SMILES | melting point [°C] | IC50 (PARP) [nM] | Kd [1] [nM] | PF50 (Jurkat cell line)
CN1CC(=O)Nc2cc(CN3CC=C(c4ccc(Cl)cc4)CC3)cnc21 [Compound 80, 7-((4-(4-chlorophenyl)-5,6-dihydropyridin-1(2H)-yl)methyl)-4-methyl-3,4-dihydropyrido[2,3-b]pyrazin-2(1H)-one] |  | ≥ 50.1 | < 31.6 | ≧0
O=C1CN(Cc2ccccc2)c2ncc(CN3CC=C(c4ccc(Cl)cc4)CC3)cc2N1 [Compound 83, 4-benzyl-7-((4-(4-chlorophenyl)-5,6-dihydropyridin-1(2H)-yl)methyl)-3,4-dihydropyrido[2,3-b]pyrazin-2(1H)-one] |  | 15.8 to 39.8 | ≥ 1000 | ≧0
O=C1Nc2cc(CN3CC=C(c4ccc(Cl)cc4)CC3)cnc2N2CCSCC12 (stereo not drawn) [Compound 86, 3-((4-(4-chlorophenyl)-5,6-dihydropyridin-1(2H)-yl)methyl)-6a,7,9,10-tetrahydropyrido[3,2-e][1,4]thiazino[4,3-a]pyrazin-6(5H)-one] |  | 15.8 to 39.8 | < 31.6 | >500
